Series [1] in a line: Solubility by visual inspection of peptide solutions. Format: physicochemical. The procedure: (§1) Peptides were either dissolved in sodium phosphate buffer (50 mM, pH 7.4, filtered) or dissolved in ultrapure (MilliQ) water (adjusted to pH 7.4 with NaOH, filtered) (see Table 3). All peptide samples were prepared to a concentration of 1, 5, 7.5 or 15 mg/ml. All samples, with the exception of reference peptides GIP(3-30), AT158, and AT482 dissolved readily and produced clear and colorless solutions with gentle mixing. Peptide samples were subsequently filtered through 0.22 μm nylon filters (Q-Max® RR syringe filter, 13 mm, Frisenette, DK) to produce particle-free solutions. All samples were added to a 96-well plate reader for the ThT assay at t=0.
Clear visual appearance may be taken as an indicator of the immediate solubility of the peptide. […] Thus, A13Aib and/or N24E substitutions appear to increase solubility.

Series [2] is described as follows: Physical stability: fibril formation in Thioflavin T (ThT) assay with agitation. Format: physicochemical. The conditions noted are these: 25° C., agitation. As to the method:
Continuous measurement of the fluorescence emission at 486 nm can be used as a measure of fibrillation behavior of peptides and proteins. The time until onset of fibrillation or fibrillation lag time is estimated here by defining the lag time (Tlag) as the point in time where the signal relative to the pre-transition baseline has reached 10% of the post-transition baseline.
50 mM sodium phosphate buffer for dissolving some samples was prepared in ultrapure water (Milli-Q® Reference A+ System, Merck) with a resistivity of 18.2 MΩ·cm. The buffer was adjusted to pH 7.4 and filtered.
The ultrapure water (MilliQ) for dissolving some samples was adjusted to pH 7.4 with NaOH and filtered prior to sample preparation.
as §1
For each sample, […] ThT (1 mM) was added to 1.2 mL peptide solution. From this sample mixture, an amount of 200 uL/well was pipetted into four or five wells (n=4 or 5). Blank samples (buffer+ThT) were also included. One 3 mm silica bead was added to each well containing samples and the plate was subjected to orbital rotation at 300 rpm to agitate and stress the samples. The temperature was kept at 25° C. throughout the measurement.

Starred links: 1 amine or outer side, 2 acyl side, 3 side chain; linkers in the order of their positions; H or OH if unused. Positions of bridges follow the written chain, without caps; N, C: chain ends. Non-standard residues stand in square brackets, D forms with d. Residues, ends and D or L forms follow the SMILES beside them. Groups on a side chain read outwards from the residue. Chains are numbered I, II in the order given. No end group written: not given here. *: point of attachment. C20 diacid = O=C(O)CCCCCCCCCCCCCCCCCCC(=O)*; C18 diacid = O=C(O)CCCCCCCCCCCCCCCCC(=O)*; C16 diacid = O=C(O)CCCCCCCCCCCCCCC(=O)*; γGlu = O=C(O)[C@H](CCC(=O)[*:2])N[*:1]; AEEA = NCCOCCOCC(=O)O; Aib = CC(C)(N)C(=O)O A value given as a limit tells only on which side of the number the result lay.

For the molecule `CC[C@H](C)[C@H](NC(=O)[C@H](CO)NC(=O)[C@H](Cc1ccc(O)cc1)NC(=O)[C@H](CC(=O)O)NC(=O)[C@H](CO)NC(=O)[C@@H](NC(=O)[C@H](Cc1ccccc1)NC(=O)[C@@H](NC(=O)CNC(=O)[C@@H](N)CCC(=O)O)[C@@H](C)O)[C@@H](C)CC)C(=O)N[C@@H](C)C(=O)N[C@@H](CCSC)C(=O)N[C@@H](CC(=O)O)C(=O)N[C@@H](CCCCN)C(=O)N[C@H](C(=O)N[C@@H](CCCCNC(=O)CCCCCCCCCCCCCCC(=O)O)C(=O)N[C@@H](CCC(N)=O)C(=O)N[C@@H](CCC(N)=O)C(=O)N[C@@H](CC(=O)O)C(=O)N[C@@H](Cc1ccccc1)C(=O)N[C@H](C(=O)N[C@@H](CC(N)=O)C(=O)N[C@@H](Cc1c[nH]c2ccccc12)C(=O)N[C@@H](CC(C)C)C(=O)N[C@@H](CC(C)C)C(=O)N[C@@H](C)C(=O)N[C@@H](CCC(N)=O)C(=O)N[C@@H](CCCCN)C(=O)O)C(C)C)[C@@H](C)CC` [AT719] (H-EGTFISDYSIAMDKIK(C16 diacid)QQDFVNWLLAQK-OH; N-terminus assumed), the Visual appearance result in series [1] (1 mg/ml, TFA, Phosphate (7.4)) was “Clear”. In addition, in series [2] (1 mg/ml, TFA, Phosphate (7.4)), the “Avr lag time” value is listed as under 8 h.
In the case of `CC[C@H](C)[C@H](NC(=O)[C@H](CCCCN)NC(=O)[C@H](CC(=O)O)NC(=O)[C@H](CC(C)C)NC(=O)C(C)(C)NC(=O)[C@@H](NC(=O)[C@H](CO)NC(=O)[C@H](Cc1ccc(O)cc1)NC(=O)[C@H](CCC(=O)O)NC(=O)[C@H](CO)NC(=O)[C@@H](NC(=O)[C@H](Cc1ccccc1)NC(=O)[C@@H](NC(=O)CNC(=O)[C@@H](N)CCC(=O)O)[C@@H](C)O)[C@@H](C)CC)[C@@H](C)CC)C(=O)N[C@@H](CCCCNC(=O)COCCOCCNC(=O)COCCOCCNC(=O)CC[C@H](NC(=O)CCCCCCCCCCCCCCCCC(=O)O)C(=O)O)C(=O)N[C@@H](CCC(N)=O)C(=O)N[C@@H](CCC(N)=O)C(=O)N[C@@H](CC(=O)O)C(=O)N[C@@H](Cc1ccccc1)C(=O)N[C@H](C(=O)N[C@@H](CCC(=O)O)C(=O)N[C@@H](Cc1c[nH]c2ccccc12)C(=O)N[C@@H](CC(C)C)C(=O)N[C@@H](CC(C)C)C(=O)N[C@@H](C)C(=O)N[C@@H](CCC(N)=O)C(=O)N[C@@H](CCCCN)C(=O)N1CCC[C@H]1C(=O)N[C@@H](CO)C(=O)N[C@@H](CO)C(=O)NCC(=O)N[C@@H](C)C(=O)N1CCC[C@H]1C(=O)N1CCC[C@H]1C(=O)N1CCC[C@H]1C(=O)N[C@@H](CO)C(=O)O)C(C)C` [AT712] (H-EGTFISEYSI[Aib]LDKIK([AEEA-AEEA-γGlu-C18 diacid])QQDFVEWLLAQKPSSGAPPPS-OH; N-terminus assumed), the Visual appearance result in series [1] (1 mg/ml, TFA, Phosphate (7.4)) was “Clear”. Besides, in series [2] (1 mg/ml, TFA, Phosphate (7.4)), the “Avr lag time (h)” value was “fnd (Fnd = fibrils not detected within experiment time (96 hours) with agitation.)”.
On to `CC[C@H](C)[C@H](NC(=O)[C@H](CO)NC(=O)[C@H](Cc1ccc(O)cc1)NC(=O)[C@H](CC(=O)O)NC(=O)[C@H](CO)NC(=O)[C@@H](NC(=O)[C@H](Cc1ccccc1)NC(=O)[C@@H](NC(=O)CNC(=O)[C@@H](N)CCC(=O)O)[C@@H](C)O)[C@@H](C)CC)C(=O)N[C@@H](C)C(=O)N[C@@H](CCSC)C(=O)N[C@@H](CC(=O)O)C(=O)N[C@@H](CCCCN)C(=O)N[C@H](C(=O)N[C@@H](CCCCNC(=O)CCCCCCCCCCCCCCC(=O)O)C(=O)N[C@@H](CCC(N)=O)C(=O)N[C@@H](CCC(N)=O)C(=O)N[C@@H](C)C(=O)N[C@@H](Cc1ccccc1)C(=O)N[C@H](C(=O)N[C@@H](CCC(=O)O)C(=O)N[C@@H](Cc1c[nH]c2ccccc12)C(=O)N[C@@H](CC(C)C)C(=O)N[C@@H](CC(C)C)C(=O)N[C@@H](C)C(=O)N[C@@H](CCC(N)=O)C(=O)N[C@@H](CCCCN)C(=O)N1CCC[C@H]1C(=O)N[C@@H](CO)C(=O)N[C@@H](CO)C(=O)NCC(=O)N[C@@H](C)C(=O)N1CCC[C@H]1C(=O)N1CCC[C@H]1C(=O)N1CCC[C@H]1C(=O)N[C@@H](CO)C(=O)O)C(C)C)[C@@H](C)CC` [AT745] (H-EGTFISDYSIAMDKIK(C16 diacid)QQAFVEWLLAQKPSSGAPPPS-OH; N-terminus assumed), for which, in series [1] (1 mg/ml, TFA, Phosphate (7.4)), the Visual appearance result is recorded as “Clear”. In series [2] (1 mg/ml, TFA, Phosphate (7.4)), the “Avr lag time” value is recorded as under 24 h.
As for `CC[C@H](C)[C@H](NC(=O)[C@H](CCCCN)NC(=O)[C@H](CCC(=O)O)NC(=O)[C@H](CC(C)C)NC(=O)C(C)(C)NC(=O)[C@@H](NC(=O)[C@H](CO)NC(=O)[C@H](Cc1ccc(O)cc1)NC(=O)[C@H](CCC(=O)O)NC(=O)[C@H](CO)NC(=O)[C@@H](NC(=O)[C@H](Cc1ccccc1)NC(=O)[C@@H](NC(=O)CNC(=O)[C@@H](N)CCC(=O)O)[C@@H](C)O)[C@@H](C)CC)[C@@H](C)CC)C(=O)N[C@@H](CCCCNC(=O)COCCOCCNC(=O)COCCOCCNC(=O)CC[C@H](NC(=O)CCCCCCCCCCCCCCCCC(=O)O)C(=O)O)C(=O)N[C@@H](CCC(N)=O)C(=O)N[C@@H](CCC(N)=O)C(=O)N[C@@H](CCC(=O)O)C(=O)N[C@@H](Cc1ccccc1)C(=O)N[C@H](C(=O)N[C@@H](CCC(=O)O)C(=O)N[C@@H](Cc1c[nH]c2ccccc12)C(=O)N[C@@H](CC(C)C)C(=O)N[C@@H](CC(C)C)C(=O)N[C@@H](C)C(=O)N[C@@H](CCC(N)=O)C(=O)N[C@@H](CCCCN)C(=O)N1CCC[C@H]1C(=O)N[C@@H](CO)C(=O)N[C@@H](CO)C(=O)NCC(=O)N[C@@H](C)C(=O)N1CCC[C@H]1C(=O)N1CCC[C@H]1C(=O)N1CCC[C@H]1C(=O)N[C@@H](CO)C(N)=O)C(C)C` [AT714] (H-EGTFISEYSI[Aib]LEKIK([AEEA-AEEA-γGlu-C18 diacid])QQEFVEWLLAQKPSSGAPPPS-NH2; N-terminus assumed), the Visual appearance result in series [1] (1 mg/ml, TFA, Phosphate (7.4)) is “Clear”. In addition, the “Avr lag time (h)” value in series [2] (1 mg/ml, TFA, Phosphate (7.4)) is “fnd (Fnd = fibrils not detected within experiment time (96 hours) with agitation.)”.
In the case of “I: EGTFISEYSI[Aib]LEKIKQQEFVEWLLAQKPSSGAPPPS-OH / II: {C16 diacid}-GGGGS (amide I:16-II:C) [AT722]”, the Visual appearance entry in series [1] (1 mg/ml, TFA, Phosphate (7.4)) is listed as “Clear”; in series [1] (7.5 mg/ml, Na, MilliQ (8)), “Clear”; in series [1] (15 mg/ml, Na, MilliQ (8)) it was “Clear”. Also, the “Avr lag time (h)” value is “fnd (Fnd = fibrils not detected within experiment time (96 hours) with agitation.)” in series [2] (1 mg/ml, TFA, Phosphate (7.4)); “fnd (Fnd = fibrils not detected within experiment time (96 hours) with agitation.)” in series [2] (7.5 mg/ml, Na, MilliQ (8)); “fnd (Fnd = fibrils not detected within experiment time (96 hours) with agitation.)” in series [2] (15 mg/ml, Na, MilliQ (8)).
Take `CC[C@H](C)[C@H](NC(=O)[C@H](CO)NC(=O)[C@H](Cc1ccc(O)cc1)NC(=O)[C@H](CC(=O)O)NC(=O)[C@H](CO)NC(=O)[C@@H](NC(=O)[C@H](Cc1ccccc1)NC(=O)[C@@H](NC(=O)CNC(=O)[C@@H](N)CCC(=O)O)[C@@H](C)O)[C@@H](C)CC)C(=O)N[C@@H](C)C(=O)N[C@@H](CCSC)C(=O)N[C@@H](CC(=O)O)C(=O)N[C@@H](CCCCN)C(=O)N[C@H](C(=O)N[C@@H](CCCCNC(=O)CCCCCCCCCCCCCCCCCCC(=O)O)C(=O)N[C@@H](CCC(N)=O)C(=O)N[C@@H](CCC(N)=O)C(=O)N[C@@H](CC(=O)O)C(=O)N[C@@H](Cc1ccccc1)C(=O)N[C@H](C(=O)N[C@@H](CCC(=O)O)C(=O)N[C@@H](Cc1c[nH]c2ccccc12)C(=O)N[C@@H](CC(C)C)C(=O)N[C@@H](CC(C)C)C(=O)N[C@@H](C)C(=O)N[C@@H](CCC(N)=O)C(=O)N[C@@H](CCCCN)C(=O)N1CCC[C@H]1C(=O)N[C@@H](CO)C(=O)N[C@@H](CO)C(=O)NCC(=O)N[C@@H](C)C(=O)N1CCC[C@H]1C(=O)N1CCC[C@H]1C(=O)N1CCC[C@H]1C(=O)N[C@@H](CO)C(=O)O)C(C)C)[C@@H](C)CC` [AT750] (H-EGTFISDYSIAMDKIK(C20 diacid)QQDFVEWLLAQKPSSGAPPPS-OH; N-terminus assumed): in series [1] (1 mg/ml, TFA, Phosphate (7.4)), the Visual appearance result is on record as “Clear”. Moreover, in series [2] (1 mg/ml, TFA, Phosphate (7.4)), the “Avr lag time (h)” value is reported as “fnd (Fnd = fibrils not detected within experiment time (96 hours) with agitation.)”.

The values are drawn from US20230416330A1, “Optimized GIP Peptide Analogues” (Antag Therapeutics ApS, priority 2019, published 2023).
